{"source": "PubChem BioAssay AID504508", "about": "(Sanford-Burnham Center for Chemical Genomics, 2011)", "data": [{"test_system": "697 B-cell NF-kB luciferase reporter, PMA/ionomycin, 16 h", "assay": "inhibitors of antigen receptor-driven NF-kB signaling, SAR follow-up, B-cell specific, 697 cells, luminescence, set 2 (AID 504508)", "units": {"IC50": "µM"}, "values": [{"smiles": "CCCOc1ccc(-c2nc(CSCC(=O)NC3CC3)c(C)o2)cc1", "IC50": 0.09}, {"smiles": "C#CCNC(=O)CSCc1nc(-c2ccc(OCC)cc2)oc1C", "IC50": 0.06}, {"smiles": "CCCCc1ccc(-c2noc(CCC(=O)NC)n2)cc1", "IC50": 0.11}, {"smiles": "CCCCc1ccc(-c2noc(CCC(=O)NCC)n2)cc1", "IC50": 0.13}, {"smiles": "CCCOc1ccc(-c2nc(CSCC(=O)O)c(C)o2)cc1", "IC50": 0.04}, {"smiles": "CCOc1ccc(-c2nc(CSCC(=O)O)c(C)o2)cc1", "IC50": 0.05}, {"smiles": "CCCOc1ccc(-c2nc(CSCC(=O)NCc3ccco3)c(C)o2)cc1", "IC50": 0.09}, {"smiles": "CCCCOc1ccc(-c2nc(CSCC(=O)O)c(C)o2)cc1", "IC50": 0.08}, {"smiles": "Cc1oc(-c2ccc(OC(F)(F)F)cc2)nc1CSCC(=O)O", "IC50": 0.19}, {"smiles": "CC(C)c1ccc(-c2noc(CCC(=O)NC3CC3)n2)cc1", "IC50": 0.25}, {"smiles": "CCOc1ccc(-c2nc(CSCC(N)=O)c(C)o2)cc1", "IC50": 0.08}]}]}
